Assay results taken from ChEMBL document CHEMBL4834434, “Discovery of Novel and Potent N-Methyl-d-aspartate Receptor Positive Allosteric Modulators with Antidepressant-like Activity in Rodent Models” (J Med Chem, 2021).
Activity calls are given as the source filed them. The calls are words filed in the database; no cut-off is given here.

Experiments:
[1] = Brain to blood partition coefficient of the compound; assay type: physicochemical, tissue-based; settings: read-out: logBB (converted)
[2] = Cytotoxicity against African green monkey Vero cells assessed as cell growth inhibition at 120 uM measured after 48 hrs by CCK8 assay relative to control; assay type: cell-based; settings: chlorocebus sabaeus
[3] = Cytotoxicity against human HEK293 cells assessed as cell growth inhibition at 120 uM measured after 48 hrs by CCK8 assay relative to control; assay type: cell-based
[4] = tested on: Vero; experiment: Cytotoxicity against African green monkey Vero cells assessed as cell growth inhibition measured after 48 hrs by CCK8 assay; assay type: cell-based; settings: Chlorocebus sabaeus
[5] = Half life in ICR mouse at 3 mg/kg, iv measured up to 24 hrs by HPLC-MS/MS analysis; assay type: ADME, organism-based; settings: in vivo
[6] = biological target: Glutamate NMDA receptor; experiment: Positive allosteric modulation of C57BL/6 mouse NMDA receptor assessed as potentiation of NMDA-induced current in presence of saturating glutamate by patch-clamp method; assay type: tissue-based, Brain
[7] = Effect on locomotor activity in ICR mouse assessed as hyperlocomotion at 10 mg/kg, ip measured after 90 mins; assay type: ADME, organism-based; settings: in vivo, 1.5 h
[8] = biological target: T1, hERG (KCNH2) (Homo sapiens, UniProt Q12809); experiment: Inhibition of human ERG expressed in CHO cells at 30 uM with holding potential at -80 to -60 mV for 500s followed by raise in potential at +30 mV for 2 sec and subsequent repolarization to -60 mV for 2 sec by whole-cell patch clamp method relative to control; assay type: cell-based; settings: CHO cells expressing human ERG
T1 sequence (Q12809 whole entry): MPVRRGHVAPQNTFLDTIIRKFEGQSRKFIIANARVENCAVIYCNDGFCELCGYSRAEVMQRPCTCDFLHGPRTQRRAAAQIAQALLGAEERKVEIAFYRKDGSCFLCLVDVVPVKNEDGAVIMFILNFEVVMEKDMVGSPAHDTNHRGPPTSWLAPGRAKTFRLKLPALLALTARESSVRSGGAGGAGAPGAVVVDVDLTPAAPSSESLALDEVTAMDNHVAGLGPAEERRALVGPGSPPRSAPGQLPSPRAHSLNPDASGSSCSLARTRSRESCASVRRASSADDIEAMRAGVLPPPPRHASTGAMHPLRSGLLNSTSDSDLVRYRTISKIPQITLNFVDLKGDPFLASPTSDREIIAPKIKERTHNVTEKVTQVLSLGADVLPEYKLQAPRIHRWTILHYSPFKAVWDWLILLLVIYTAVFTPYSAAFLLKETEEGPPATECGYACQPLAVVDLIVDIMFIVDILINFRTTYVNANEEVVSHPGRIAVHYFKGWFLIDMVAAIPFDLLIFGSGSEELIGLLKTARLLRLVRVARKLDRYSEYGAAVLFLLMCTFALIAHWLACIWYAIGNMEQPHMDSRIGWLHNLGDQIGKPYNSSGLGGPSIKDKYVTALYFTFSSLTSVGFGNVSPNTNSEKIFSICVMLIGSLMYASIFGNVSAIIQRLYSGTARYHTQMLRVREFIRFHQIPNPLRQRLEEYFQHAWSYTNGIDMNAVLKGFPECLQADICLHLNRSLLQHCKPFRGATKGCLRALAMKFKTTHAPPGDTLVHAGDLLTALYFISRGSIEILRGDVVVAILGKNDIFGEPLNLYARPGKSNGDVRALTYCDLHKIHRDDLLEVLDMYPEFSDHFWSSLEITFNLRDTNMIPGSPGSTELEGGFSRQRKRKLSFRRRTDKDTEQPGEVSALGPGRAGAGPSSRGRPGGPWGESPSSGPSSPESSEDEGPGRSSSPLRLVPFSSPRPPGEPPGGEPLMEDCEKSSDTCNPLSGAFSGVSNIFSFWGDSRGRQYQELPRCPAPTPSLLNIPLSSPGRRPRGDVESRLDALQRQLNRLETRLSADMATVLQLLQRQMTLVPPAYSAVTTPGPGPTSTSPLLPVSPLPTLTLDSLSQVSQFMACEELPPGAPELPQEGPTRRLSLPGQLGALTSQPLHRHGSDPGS

[9] = Drug concentration in ICR mouse brain at 10 mg/kg, po measured at 0.5 hrs by LC-MS/MS analysis; assay type: ADME, organism-based; settings: read-out: Ct
[10] = […] in ICR mouse assessed as body weight gain at 30 mg/kg, po administered for 28 days; assay type: organism-based; settings: in vivo, 672 h, time 28 day
[11] = […] in ICR mouse assessed as change in behaviour at 30 mg/kg, po administered for 28 days; assay type: organism-based; settings: in vivo, 672 h, time 28 day
[12] = Acute toxicity in ip dosed ICR mouse assessed as lethal dose measured after 24 hrs; assay type: organism-based; settings: in vivo
[13] = Volume of distribution at steady state in ICR mouse at 3 mg/kg, iv measured up to 24 hrs by HPLC-MS/MS analysis; assay type: ADME, organism-based; settings: in vivo, read-out: Vdss
[14] = Cytotoxicity against African green monkey Vero cells assessed as cell growth inhibition at 60 uM measured after 48 hrs by CCK8 assay relative to control; assay type: cell-based; settings: chlorocebus sabaeus
[15] = Cytotoxicity against mouse L929 cells assessed as cell growth inhibition at 120 uM measured after 48 hrs by CCK8 assay relative to control; assay type: cell-based
[16] = tested on: L929; experiment: Cytotoxicity against mouse L929 cells assessed as cell growth inhibition measured after 48 hrs by CCK8 assay; assay type: cell-based; settings: L929, 48 h
[17] = Cytotoxicity against mouse L929 cells assessed as cell growth inhibition at 60 uM measured after 48 hrs by CCK8 assay relative to control; assay type: cell-based
[18] = Ratio of drug concentration in brain to plasma in ICR mouse at 3 mg/kg, iv measured at 0.5 hrs by LC-MS/MS analysis; assay type: ADME, organism-based; settings: read-out: BPR
[19] = Half life in ICR mouse at 10 mg/kg, po measured up to 24 hrs by HPLC-MS/MS analysis; assay type: ADME, organism-based; settings: in vivo
[20] = Drug concentration in ICR mouse brain at 10 mg/kg, po measured at 2 hrs by LC-MS/MS analysis; assay type: ADME, organism-based; settings: read-out: Ct
[21] = Tmax in ICR mouse at 10 mg/kg, po measured up to 24 hrs by HPLC-MS/MS analysis; assay type: ADME, organism-based; settings: in vivo
[22] = tested on: Mus musculus; experiment: Antidepressant activity in ICR mouse aassessed as inhibition of apomorphine-induced climbing behaviour at 10 mg/kg, ip administered prior to APO challenge and measured after 30 mins; assay type: functional, organism-based
[23] = tested on: Mus musculus; experiment: Antidepressant activity in ICR mouse assessed as decrease in immobility time at 30 mg/kg, ip measured after 26 mins by forced swim test; assay type: functional, organism-based
[24] = tested on: HEK293; experiment: Cytotoxicity against human HEK293 cells assessed as cell growth inhibition measured after 48 hrs by CCK8 assay; assay type: cell-based; settings: HEK293, 48 h
[25] = Cmax in ICR mouse at 10 mg/kg, po measured up to 24 hrs by HPLC-MS/MS analysis; assay type: ADME, organism-based; parameters: route oral, dose 10 mg/kg, time <=24; settings: in vivo
[26] = Effect on locomotor activity in ICR mouse assessed as hypolocomotion at 10 mg/kg, ip measured after 90 mins; assay type: ADME, organism-based; settings: in vivo, 1.5 h
[27] = AUC (0 to t) in ICR mouse at 10 mg/kg, po measured up to 24 hrs by HPLC-MS/MS analysis; assay type: ADME, organism-based; parameters: route oral, dose 10 mg/kg, time <=24; settings: in vivo
[28] = Oral bioavailability in ICR mouse at 10 mg/kg measured up to 24 hrs by HPLC-MS/MS analysis; assay type: ADME, organism-based; settings: in vivo
[29] = Drug concentration in ICR mouse plasma at 3 mg/kg, iv measured at 0.5 hrs by LC-MS/MS analysis; assay type: ADME, organism-based
[30] = Cytotoxicity against human HEK293 cells assessed as cell growth inhibition at 60 uM measured after 48 hrs by CCK8 assay relative to control; assay type: cell-based
[31] = MRT in ICR mouse at 3 mg/kg, iv measured up to 24 hrs by HPLC-MS/MS analysis; assay type: ADME, organism-based; settings: in vivo
[32] = […] in ICR mouse assessed as decrease in body weight at 30 mg/kg, po administered for 28 days; assay type: organism-based; settings: in vivo, 672 h, time 28 day
[33] = Ratio of drug concentration in brain to plasma in ICR mouse at 3 mg/kg, iv measured at 2 hrs by LC-MS/MS analysis; assay type: ADME, organism-based; settings: read-out: BPR
[34] = Drug concentration in ICR mouse brain at 3 mg/kg, iv measured at 0.5 hrs by LC-MS/MS analysis; assay type: ADME, organism-based; settings: read-out: Ct
[35] = Ratio of drug concentration in brain to plasma in ICR mouse at 10 mg/kg, po measured at 2 hrs by LC-MS/MS analysis; assay type: ADME, organism-based; settings: read-out: BPR
[36] = Drug concentration in ICR mouse plasma at 3 mg/kg, iv measured at 2 hrs; assay type: ADME, organism-based
[37] = tested on: Mus musculus; experiment: Antidepressant activity in ICR mouse assessed as decrease in immobility time at 3 to 10 mg/kg, ip measured after 26 mins by forced swim test; assay type: functional, organism-based; settings: dose 3-10 mg/kg
[38] = Drug concentration in ICR mouse plasma at 10 mg/kg, po measured at 0.5 hrs by LC-MS/MS analysis; assay type: ADME, organism-based
[39] = AUC (0 to t) in ICR mouse at 3 mg/kg, iv measured up to 24 hrs by HPLC-MS/MS analysis; assay type: ADME, organism-based; parameters: route intravenous, dose 3 mg/kg, time <=24; settings: in vivo
[40] = MRT in ICR mouse at 10 mg/kg, po measured up to 24 hrs by HPLC-MS/MS analysis; assay type: ADME, organism-based; settings: in vivo
[41] = Clearance in ICR mouse at 3 mg/kg, iv measured up to 24 hrs by HPLC-MS/MS analysis; assay type: ADME, organism-based; settings: in vivo
[42] = biological target: T1, hERG (KCNH2); experiment: Inhibition of human ERG expressed in CHO cells at 100 uM with holding potential at -80 to -60 mV for 500s followed by raise in potential at +30 mV for 2 sec and subsequent repolarization to -60 mV for 2 sec by whole-cell patch clamp method relative to control; assay type: cell-based; settings: CHO cells expressing human ERG
[43] = Ratio of drug concentration in brain to plasma in ICR mouse at 10 mg/kg, po measured at 0.5 hrs by LC-MS/MS analysis; assay type: ADME, organism-based; settings: read-out: BPR
[44] = Drug concentration in ICR mouse plasma at 10 mg/kg, po measured at 2 hrs by LC-MS/MS analysis; assay type: ADME, organism-based
[45] = Drug concentration in ICR mouse brain at 3 mg/kg, iv measured at 2 hrs; assay type: ADME, organism-based; settings: read-out: Ct

O=C(Nc1cc(Cl)cc(Cl)c1)c1ccc(Cn2nc(C(F)(F)F)cc2C(F)(F)F)o1
Kp [1]: 3.98
inhibition at 48 h, 120 µM [2]: 95.8%
inhibition at 48 h, 120 µM [3]: 73.6%
IC50 [4]: 23.2 µM
half-life [5]: 5 h
EC50 [6]: 12.5 µM
Activity [7]: Non-Toxic
inhibition at 2 s, 30 µM [8]: 49.1%
concentration at 0.5 h [9]: 93.4 ng/mL
Activity [10]: Non-Toxic
Activity [11]: Non-Toxic
LD50 at 24 h [12]: 1500 mg/kg
Vd [13]: 12.7 L/kg
inhibition at 48 h, 60 µM [14]: 96.2%
inhibition at 48 h, 120 µM [15]: 90.6%
IC50 [16]: 29.7 µM
inhibition at 48 h, 60 µM [17]: 84.3%
Kp at 0.5 h [18]: 0.14
half-life [19]: 5.7 h
concentration at 2 h [20]: 148 ng/mL
Tmax [21]: 2 h
Activity [22]: inactive
Activity [23]: Active
IC50 [24]: 84.8 µM
Cmax [25]: 989 ng/mL
Activity [26]: Non-Toxic
AUC(0-t) at 24 h [27]: 4220 ng·h/mL
bioavailability [28]: 72.2%
concentration at 0.5 h [29]: 506 ng/mL
inhibition at 48 h, 60 µM [30]: 42%
MRT [31]: 3.4 h
Activity [32]: Toxic
Kp at 2 h [33]: 0.16
concentration at 0.5 h [34]: 73.9 ng/mL
Kp at 2 h [35]: 0.15
concentration at 2 h [36]: 304 ng/mL
Activity [37]: Active
concentration at 0.5 h [38]: 580 ng/mL
AUC(0-t) at 24 h [39]: 1750 ng·h/mL
MRT [40]: 4.7 h
clearance [41]: 30 mL/min/kg
inhibition at 2 s, 100 µM [42]: 68.4%
Kp at 0.5 h [43]: 0.16
concentration at 2 h [44]: 989 ng/mL
concentration at 2 h [45]: 49 ng/mL
